Data taken from patent publication US20180258069A1, “NEW CRYSTAL OF PIPERAZINE COMPOUND” (TAIHO PHARMACEUTICAL CO., LTD., priority 2015, published 2018).

Key:
[1] = Solid stability test (under exposure to light); format: physicochemical; details: for Change of crystal form (powder X-ray crystal analysis): room temperature, after irradiation at 3500000 lux·h (2000 lux×1750 h)
Experimental: Using crystals I and II obtained in the Examples, the solid stability after storage under exposure to light was measured.
Storage conditions: crystal I was stored at room temperature under exposure to light after being placed in a transparent glass dish covered with a lid. Measurement point: after irradiation at 3500000 lux·h (irradiation at 2000 lux×1750 h)
Storage Container: Transparent Glass Dish
The powder X-ray diffraction upon the storage stability test was measured after an appropriate amount of the test substance was lightly pulverized as necessary using an agate mortar under the following test conditions.
Device: MiniFlex II, Rigaku Corporation
X-ray output power: 15 mA, 30 kV Scanning range: 3.0 to 40.0° Step size: 0.010° Scanning speed: […]. Divergence slit: 1.25° Scatter slit: open Receiving slit: open

[2] = Dynamic vapor sorption (DVS) system analysis (moisture adsorption-desorption test); format: physicochemical; details: 25° C., 5% to 95% RH
Experimental: Dynamic vapor sorption (DVS) system analysis was performed under the following conditions.
Device: VTI SGA-100, TA Instruments
Sample: about 10 mg Measurement temperature: 25° C. RH steps: 5-95-1% RH by 5% RH
Hygroscopic properties of crystals I and II obtained in the Examples were confirmed by dynamic vapor sorption (DVS) system analysis.
The adsorption and desorption data was collected at 5% RH intervals in a range of relative humidity (RH) of 5% to 95%. Before the measurement, the samples were heated under nitrogen purging to 25° C. at 1° C./min, followed by drying for up to 6 hours until the weight change in 5 minutes became less than 0.0100%. The measurement was performed with equilibration for up to 2 hours until the weight change in 5 minutes became less than 0.0100%.

[3] = target: hematopoietic prostaglandin D synthase (H-PGDS) (Homo sapiens, UniProt O60760); details: disclosed in Patent Document 1; cited from earlier work
[4] = Solid stability test (40° C., under light shielding), chemical purity by HPLC; format: physicochemical
Experimental: Using crystal I obtained in the Examples, the solid stability after storage at 40° C. under light shielding was measured.
Storage conditions: crystal I was stored at 40° C. after being placed in a light shielding bottle covered with a lid. Measurement points: after 1 month, after 3 months, after 6 months
The amount of analog in the sample solution was measured by HPLC analysis. Handling of the device, including data processing, was performed in accordance with the method and procedures specified for each device (device: 2130-2450, HITACHI).
Column: Mightysil RP-18 GP 150-4.6 (5 μm)
UV detection: 220 nm Column temperature: 40° C. Column flow rate: 1.0 mL/min Mobile phase: A: acetonitrile, B: 10 mM phos. buffer

Chain of hematopoietic prostaglandin D synthase (H-PGDS) (O60760 whole entry): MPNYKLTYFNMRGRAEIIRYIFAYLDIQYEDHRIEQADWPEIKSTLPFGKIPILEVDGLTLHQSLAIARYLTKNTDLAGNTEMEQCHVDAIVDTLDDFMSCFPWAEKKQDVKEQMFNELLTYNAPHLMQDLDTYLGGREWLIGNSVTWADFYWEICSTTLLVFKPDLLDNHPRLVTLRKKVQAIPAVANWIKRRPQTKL

SMILES | Chemical purity after long-term storage under exposure to light [1] | Change of crystal form (powder X-ray crystal analysis) [1] | Change in weight due to changes in humidity [2] | Powder X-ray crystal analysis before and after moisture adsorption and desorption [2] | H-PGDS inhibiting effect [3] | Chemical Purity (%) ([4]; After 1 month at 40° C. under light shielding) | Chemical Purity (%) ([4]; After 3 months at 40° C. under light shielding) | Chemical Purity (%) ([4]; After 6 months at 40° C. under light shielding) | Chemical Purity (%) ([4]; Initial Value, before storage) | Change of chemical purity after storage ([4]; storage at 40° C. under light shielding)
Cn1cccc1C(=O)N1CCN(C(=O)Nc2ccc(N3CCC(C(=O)N4CCOCC4)CC3)cc2)CC1 [crystal II, 4-((1-methylpyrrol-2-yl)-carbonyl)-N-(4-(4-morpholin-1-yl-carbonylpiperidin-1-yl)-phenyl)-1-piperazinecarboxamide] | not decreased | changed | great change in weight | not changed |  |  |  |  |  | 
Cn1cccc1C(=O)N1CCN(C(=O)Nc2ccc(N3CCC(C(=O)N4CCOCC4)CC3)cc2)CC1 [Compound (1), 4-((1-methylpyrrol-2-yl)-carbonyl)-N-(4-(4-morpholin-1-yl-carbonylpiperidin-1-yl)-phenyl)-1-piperazinecarboxamide] |  |  |  |  | inhibiting effect |  |  |  |  | 
Cn1cccc1C(=O)N1CCN(C(=O)Nc2ccc(N3CCC(C(=O)N4CCOCC4)CC3)cc2)CC1 [crystal I, monohydrate of 4-((1-methylpyrrol-2-yl)-carbonyl)-N-(4-(4-morpholin-1-yl-carbonylpiperidin-1-yl)-phenyl)-1-piperazinecarboxamide] | not decreased | not changed | no changes in weight | not changed |  | 99.8 | 99.6 | 99.9 | 99.8 | not changed
